Laboratory results reported in article PMC3171403, “Two Functionally Distinctive Phosphopantetheinyl Transferases from Amoeba Dictyostelium discoideum” (PLoS ONE, 2011).

How the values were obtained:
Assay type in all cases: biochemical
DiAcpS [1] = target: T1, DiAcpS (Dictyostelium discoideum, UniProt Q552R4); test: gel-based radiolabel transfer to apo-ACP, phosphorimager; settings: labelled compound; 5-45 uM; 20 uM enzyme; 54 uM mycobacterial ACP Rv1344; 12.5 mM MgCl2, Tris-Cl pH 8.0, 30 C (gel-binding assay); only kcat/Km in text
T1 construct: gene DDB_G0275923; full gene (2 exons) in pET28a, N-terminal His6 tag, E. coli BL21(DE3); expected 20 kDa, runs at about 27 kDa

DiSfp [2] = target: T2, DiSfp (Dictyostelium discoideum, UniProt Q54MI2); test: as above; settings: labelled compound; 5-45 uM; 20 uM enzyme; 54 uM mycobacterial PKS2; 12.5 mM MgCl2, Tris-Cl pH 8.0, 30 C (gel-binding assay); only kcat/Km in text
T2 construct: gene DDB_G0285927; full gene (2 exons) in pET28a, N-terminal His6 tag, E. coli BL21(DE3); 34 kDa

DiAcpS [3] = target: T1, DiAcpS; test: HPLC and MALDI-TOF of holo-ACP formation; settings: 250 uM CoA; 54 uM apo-ACP (Rv1344 or Dictyostelium stand-alone ACP); 12.5 mM MgCl2, Tris-Cl pH 8.0, 37 C
DiSfp [4] = target: T2, DiSfp; test: HPLC and MALDI-TOF of holo-ACP formation; settings: 250 uM CoA; 54 uM apo DiPKS16 ACP; 12.5 mM MgCl2, Tris-Cl pH 8.0, 37 C

T1 sequence (Q552R4 entry or part of it): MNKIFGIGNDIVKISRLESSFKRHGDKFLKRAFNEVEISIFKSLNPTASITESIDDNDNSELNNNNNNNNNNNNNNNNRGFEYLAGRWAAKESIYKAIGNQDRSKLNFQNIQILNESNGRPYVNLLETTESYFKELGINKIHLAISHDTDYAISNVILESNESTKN
T2 sequence (Q54MI2 entry or part of it): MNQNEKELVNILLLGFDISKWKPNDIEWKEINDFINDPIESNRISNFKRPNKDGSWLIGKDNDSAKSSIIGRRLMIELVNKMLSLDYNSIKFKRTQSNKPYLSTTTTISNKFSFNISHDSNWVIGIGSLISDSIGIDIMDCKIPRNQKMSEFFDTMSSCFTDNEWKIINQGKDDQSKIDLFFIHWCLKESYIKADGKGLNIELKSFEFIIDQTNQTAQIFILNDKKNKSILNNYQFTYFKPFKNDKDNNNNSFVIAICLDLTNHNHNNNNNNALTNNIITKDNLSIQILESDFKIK

Row | SMILES | gel-based radiolabel transfer to apo-ACP, phosphorimager (DiAcpS [1]) | gel-based radiolabel transfer to apo-ACP, phosphorimager (DiSfp [2]) | HPLC and MALDI-TOF of holo-ACP formation (DiAcpS [3]) | HPLC and MALDI-TOF of holo-ACP formation (DiSfp [4])
1 | CC(=O)SCCNC(=O)CCNC(=O)[C@H](O)C(C)(C)COP(=O)(O)OP(=O)(O)OC[C@H]1O[C@@H](n2cnc3c(N)ncnc32)[C@H](O)[C@@H]1OP(=O)(O)O [acetyl CoA] | Kinetics of DiAcpS with the ACP was determined by varying the concentrations of acetyl CoA | phosphopantetheinylation only by DiSfp and no activity could be observed for DiAcpS | – | –
2 | CC(C)(COP(=O)(O)OP(=O)(O)OC[C@H]1O[C@@H](n2cnc3c(N)ncnc32)[C@H](O)[C@@H]1OP(=O)(O)O)[C@@H](O)C(=O)NCCC(=O)NCCS [coenzyme A] | – | – | DiAcpS mediated conversion of apo- to holo-ACP resulted in shift in the retention time | DiSfp resulted in a shift of ACP retention time on reverse-phase column
